Test system: tumor that expresses high levels of CXCL12
Test: Tumor growth in mice bearing a subcutaneous CXCL12-expressing tumor

Compound: c1cc(CN2CCCNCCNCCCNCC2)ccc1CN1CCCNCCNCCCNCC1 [AMD3100]
- Delay in tumor growth, co-treatment versus TAX alone (AMD3100 subcutaneous once a day for 5 days, then 12.5 mg/kg TAX intraperitoneal one to three days after the final dose): synergistic effect

Compound: CC(=O)O[C@H]1C(=O)[C@@]2(C)[C@H]([C@H](OC(=O)c3ccccc3)[C@]3(O)C[C@H](OC(=O)[C@H](O)[C@@H](NC(=O)c4ccccc4)c4ccccc4)C(C)=C1C3(C)C)[C@]1(OC(C)=O)CO[C@@H]1C[C@@H]2O [TAX, paclitaxel]
- Tumor growth (12.5 mg/kg paclitaxel (TAX) intraperitoneal, 18 hours prior to assay, mice not administered AMD3100): delayed by TAX treatment, but resumes soon after the treatment is discontinued
